Several values for one entry are separate records, joined by “and”; a condition that tells them apart may be missing. Identical values can stand only once. Toxic doses and inconclusive results are not listed.
System: P388 leukemia ip, CD2F1 mice, survival T/C
Assay: NCI In Vivo Anticancer Drug Screen. Data for tumor model P388 Leukemia (intraperitoneal) in CD2F1 (CDF1) mice
Details: endpoint: median survival time, higher = longer survival
Summary of the method: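 Mice carrying the transplanted tumor received test compound or vehicle. Survival was recorded in each group, and the value is the treated-group measurement divided by that of the vehicle-treated control group.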

[1] = dose: 100.0 mg/kg/injection, schedule: Q04DX003 (ip), vehicle: saline
[2] = dose: 200.0 mg/kg/injection, schedule: Q04DX003 (ip), vehicle: saline
[3] = dose: 400.0 mg/kg/injection, schedule: Q04DX003 (ip), vehicle: saline
[4] = dose: 50.0 mg/kg/injection, schedule: Q01DX005 (ip), vehicle: saline with Tween-80
[5] = dose: 12.5 mg/kg/injection, schedule: Q01DX005 (ip), vehicle: saline with Tween-80

## O=C(O)c1c[nH]c2cc(OCc3ccc4ccccc4c3)ccc2c1=O
[1]
  T/C: 90 % of control
[2]
  T/C: 97 % of control
[3]
  T/C: 87 % of control

## [O-][n+]1onc2ccccc21
dose: 25.0 mg/kg/injection, schedule: Q04DX002 (ip), vehicle: saline with Tween-80
  T/C: 103 % of control
dose: 50.0 mg/kg/injection, schedule: Q04DX002 (ip), vehicle: saline with Tween-80
  T/C: 109 % of control
dose: 100.0 mg/kg/injection, schedule: Q04DX002 (ip), vehicle: saline with Tween-80
  T/C: 90 % of control

## O=C(Nc1ccc([N+](=O)[O-])cc1)OCCI
dose: 100.0 mg/kg/injection, schedule: Q04DX003 (ip), vehicle: saline with Tween-80
  T/C: 101 % of control
dose: 200.0 mg/kg/injection, schedule: Q04DX003 (ip), vehicle: saline with Tween-80
  T/C: 92 % of control
dose: 400.0 mg/kg/injection, schedule: Q04DX003 (ip), vehicle: saline with Tween-80
  T/C: 92 % of control

## Cn1c(/C=[N+](/C)[O-])cnc1[N+](=O)[O-]
dose: 50.0 mg/kg/injection, schedule: Q01DX009 (ip), vehicle: suspension in saline
  T/C: 102 % of control
dose: 100.0 mg/kg/injection, schedule: Q01DX009 (ip), vehicle: suspension in saline
  T/C: 103 % of control
dose: 200.0 mg/kg/injection, schedule: Q01DX009 (ip), vehicle: suspension in saline
  T/C: 108 % of control

## NC(Cc1ccc(O)c(N=Nc2ccc([N+](=O)[O-])cc2)c1)C(=O)O (stereo unspecified)
dose: 100.0 mg/kg/injection, schedule: Q01DX001 (ip), vehicle: saline
  T/C: 103 % of control
dose: 200.0 mg/kg/injection, schedule: Q01DX001 (ip), vehicle: saline
  T/C: 100 % of control
dose: 400.0 mg/kg/injection, schedule: Q01DX001 (ip), vehicle: saline
  T/C: 100 % of control

## CCN(CC)CCCC(CO)Nc1ccnc2cc(Cl)ccc12 (stereo unspecified)
dose: 50.0 mg/kg/injection, schedule: Q01DX009 (ip), vehicle: Klucel (hydroxypropylcellulose) (HPC)
  T/C: 104 % of control and 100 % of control
dose: 100.0 mg/kg/injection, schedule: Q01DX009 (ip), vehicle: Klucel (hydroxypropylcellulose) (HPC)
  T/C: 96 % of control and 98 % of control

## CCCN(C)C12CN3CN(CN(C3)C1)C2
[1]
  T/C: 106 % of control
[2]
  T/C: 95 % of control
[3]
  T/C: 100 % of control

## COc1cc(C2C(C#N)=CNc3nc(N)nc(N)c32)cc(OC)c1OC (stereo unspecified)
dose: 60.0 mg/kg/injection, schedule: Q01DX005 (ip), vehicle: saline with Tween-80
  T/C: 120 % of control

## CC(=O)OC1(c2ccccc2)N=C(c2ccccc2)N=C1c1ccccc1 (stereo unspecified)
dose: 60.0 mg/kg/injection, schedule: Q01DX005 (ip), vehicle: Klucel (hydroxypropylcellulose) (HPC)
  T/C: 106 % of control
dose: 120.0 mg/kg/injection, schedule: Q01DX005 (ip), vehicle: Klucel (hydroxypropylcellulose) (HPC)
  T/C: 110 % of control
dose: 240.0 mg/kg/injection, schedule: Q01DX005 (ip), vehicle: Klucel (hydroxypropylcellulose) (HPC)
  T/C: 105 % of control

## COc1ccc2c(c1)C(C)(C#N)N(C)C(=O)C2=O (stereo unspecified)
dose: 100.0 mg/kg/injection, schedule: Q01DX001 (ip), vehicle: saline with Tween-80
  T/C: 100 % of control
dose: 200.0 mg/kg/injection, schedule: Q01DX001 (ip), vehicle: saline with Tween-80
  T/C: 101 % of control
dose: 400.0 mg/kg/injection, schedule: Q01DX001 (ip), vehicle: saline with Tween-80
  T/C: 96 % of control

## OC1(c2ccc(Cl)cc2)c2ccccc2COc2ccccc21 (stereo unspecified)
dose: 100.0 mg/kg/injection, schedule: Q01DX001 (ip), vehicle: Klucel (hydroxypropylcellulose) (HPC)
  T/C: 102 % of control
dose: 200.0 mg/kg/injection, schedule: Q01DX001 (ip), vehicle: Klucel (hydroxypropylcellulose) (HPC)
  T/C: 100 % of control
dose: 400.0 mg/kg/injection, schedule: Q01DX001 (ip), vehicle: Klucel (hydroxypropylcellulose) (HPC)
  T/C: 100 % of control

## O=P(CCC(O)c1ccccc1)(c1ccccc1)c1ccccc1 (stereo unspecified)
dose: 25.0 mg/kg/injection, schedule: Q01DX009 (ip), vehicle: saline sonified
  T/C: 100 % of control
dose: 50.0 mg/kg/injection, schedule: Q01DX009 (ip), vehicle: saline sonified
  T/C: 90 % of control

## COc1ccccc1NC(=O)C1=C(C)NC(C)=C(C(=O)Nc2ccccc2OC)C1c1c(Cl)cccc1Cl
[4]
  T/C: 94 % of control
dose: 100.0 mg/kg/injection, schedule: Q01DX005 (ip), vehicle: saline with Tween-80
  T/C: 98 % of control
dose: 200.0 mg/kg/injection, schedule: Q01DX005 (ip), vehicle: saline with Tween-80
  T/C: 95 % of control

## COC1=C(OC)C(=O)C(Sc2ccccc2)=C(CO)C1=O
dose: 1.56 mg/kg/injection, schedule: Q01DX005 (ip), vehicle: saline with Tween-80
  T/C: 92 % of control
dose: 3.12 mg/kg/injection, schedule: Q01DX005 (ip), vehicle: saline with Tween-80
  T/C: 87 % of control
[5]
  T/C: 99 % of control

## S=C(NCc1ccccc1)NNc1nnc(-c2ccccc2)c(-c2ccccc2)n1
[5]
  T/C: 96 % of control
dose: 25.0 mg/kg/injection, schedule: Q01DX005 (ip), vehicle: saline with Tween-80
  T/C: 94 % of control
[4]
  T/C: 91 % of control

From PubChem BioAssay AID330 (DTP/NCI, 2004)
